{"source": "paper PMC10604187", "about": "(Antioxidants, 2023)", "key": {"[1]": {"assay": "Water solubility (statement)", "format": "physicochemical", "method": "(§1) The apple slice dishes were placed in an incubator maintained at 20 °C. Kojic acid and PTU were used as positive controls. All samples, except PTU, were prepared as aqueous solutions. PTU test samples were prepared in a DMSO solution as it is only soluble in water at very low concentrations."}, "freshly-cut apple slices": {"system": "freshly-cut apple slices", "assay": "Anti-browning assay of freshly-cut apple slices", "design": "species or system Malus pumila Miller", "conditions": "for L* value change (ΔL*): 48 h storage time point; for inhibition at 5000 µM: Malus pumila, read-out: inhibition of apple slice browning (relative browning intensity) compared to control", "method": "Apples (Malus pumila Miller) of similar maturity were purchased from a local market (Emart24®, Busan, Republic of Korea). The apples were cut into small equal-sized pieces (W × D × H, 1.5 ± 0.1 cm × 1.5 ± 0.1 cm × 0.3 ± 0.05 cm). Three apple slices were placed in glass dishes with a diameter of 5 cm.\nas §1\nAt five time points (0, 12, 24, 36, and 48 h), apple slices were photographed using a camera (iPhone 11), and browning colors (a*, b*, and L*) were measured using a CR-10 spectrophotometer (Konica Minolta Sensing, Inc., Osaka, Japan). In the spectrophotometer, the colors were described by a* (redness and greenness), b* (yellowness and blueness), and L* (lightness) values according to the Commission Internationale de l’Eclairage (CIE) color system. The overall color difference (ΔE) was calculated using the following formula: (ΔE)^2 = (a − ainitial)^2 + (b − binitial)^2 + (L − Linitial)^2. In addition, based on the photographs, the relative browning intensities were calculated using CS analyzer 3.2 image analysis software."}, "[2]": {"assay": "ABTS radical cation scavenging assay", "conditions": "100 μM test samples", "method": "The ABTS radical cation-scavenging activities of analogs 1–10 were investigated according to a previously described protocol with minor modifications. Briefly, to prepare a test solution for the ABTS radical cation scavenging activity, potassium persulfate aqueous solution (10 mL, 2.45 mM) was mixed with ABTS aqueous solution (10 mL, 7 mM) and left for 12 h at room temperature in the dark until the absorbance remained constant. Prior to the ABTS radical cation scavenging assay experiments, the absorbance at 734 nm was adjusted to 0.70 ± 0.02 by diluting the ABTS radical cation solution with water. An aliquot (10 µL) of 1–10 or Trolox (the positive reference material) at 100 µM was mixed with the ABTS radical cation solution (90 µL) in each well of a 96-well plate and incubated for 10 min at ambient temperature in the dark. The optical density of each well was measured at 734 nm using a VersaMax® microplate reader. All experiments were performed independently 3 times.\nThe antioxidant potential of 1–10 was investigated using the ABTS radical cation scavenging technique. ABTS can be easily oxidized to the corresponding radical cation by oxidants such as potassium persulfate. Because of the correlation between melanogenesis and antioxidant activity, the ABTS radical-scavenging ability of 1–10 was examined. […]"}, "[3]": {"assay": "In vitro ROS scavenging assay (SIN-1, DCFH-DA)", "conditions": "40 μM, ROS enhanced by SIN-1"}, "[4]": {"assay": "DPPH radical scavenging assay", "conditions": "1 mM test samples, 0.5 h", "method": "The DPPH radical scavenging activities of analogs 1–10 were evaluated according to a previously described protocol to examine the antioxidant effects of analogs 1–10. Briefly, an aliquot (180 µL) of DPPH methanol solution (0.2 mM) was mixed with a 2-MBI analogs’ DMSO (dimethyl sulfoxide) solution in each well of a 96-well plate, and the mixture was left in the dark for 0.5 h at room temperature. The optical density of each well was analyzed using a microplate reader (VersaMax®, Molecular Devices, Sunnyvale, CA, USA).\nAs the antioxidant ability of a compound may be involved in the inhibition of melanogenesis, the antioxidant effects of analogs 1–10 on DPPH radicals were explored. Vitamin C (L-ascorbic acid), a strong antioxidant, was used as the positive control. After mixing the test sample and DPPH solutions and standing at room temperature in the dark for 0.5 h, the absorbances of the mixed samples were measured at 517 nm using 1 mM test samples."}, "HEK-293 cells": {"system": "HEK-293 cells", "assay": "Cell viability (EZ-Cytox) assay in HEK-293 cells", "format": "cell-based, human", "conditions": "40 μM (maximum concentration), 24 h", "method": "HEK-293 cells were obtained from American Type Culture Collection (ATCC; Manassas, VA, USA). Trypsin, streptomycin, fetal bovine serum (FBS), phosphate-buffered saline (PBS), penicillin, and Dulbecco’s modified Eagle’s medium (DMEM) for HEK-293 cell culture were purchased from Thermo Fisher Scientific (Carlsbad, CA, USA). HEK-293 cells were cultured in a DMEM solution containing penicillin (100 IU/mL), 10% heat-inactivated FBS, and streptomycin (100 µg/mL) in a 5% CO2 environment at 37 °C.\nCytotoxicity assays were performed using an EZ-Cytox assay (EZ-1000, DoGenBio, Seoul, Republic of Korea) in HEK-293 cells. Briefly, 96-well plates containing HEK-293 cells at a density of 1 × 10^4 cells per well were cultured in a 5% CO2 environment at 37 °C for 24 h. After 20 h, cells were treated with 2-MBI analogs 1−10 at 4 different concentrations (final concentration: 0, 2.5, 10, and 40 µM) and incubated for 24 h at 37 °C in a 5% CO2 environment. Then, 10 µL aliquot of the EZ-Cytox solution was added to each well. After 2 h incubation at 37 °C, the absorbance of each well was measured using a microplate reader (VersaMax®; Molecular Devices) at 450 nm."}, "mushroom tyrosinase [5]": {"biological_target": "T1, mushroom tyrosinase (Agaricus bisporus, UniProt C7FF04)", "assay": "Mushroom tyrosinase inhibitory assay, diphenolase activity (L-dopa substrate)", "format": "biochemical", "conditions": "vs kojic acid", "method": "The effect of the analogs on enzyme inhibition was investigated in the presence of L-dopa and L-tyrosine. […] After incubating the assay mixture for 0.5 h at 37 °C, the amounts of dopachrome produced during the incubation time were evaluated by measuring the absorbances of each well at 475 nm using a VersaMax^TM microplate reader (Molecular Devices, Sunnyvale, CA, USA)."}, "mushroom tyrosinase [6]": {"biological_target": "T1, mushroom tyrosinase", "assay": "biochemical", "conditions": "for mode of tyrosinase inhibition: Lineweaver–Burk plots, L-dopa", "method": "Briefly, a dimethyl sulfoxide (DMSO) solution (10 µL) containing test analogs (final concentrations: 0, 5, 10, and 20 nM) was added to the wells of a 96-well plate containing mushroom tyrosinase (20 µL, 200 units/mL) and an aqueous solution (170 µL) consisting of L-dopa (final concentrations: 0.125, 0.25, 0.5, 1, 2, 4, and 8 mM) and phosphate buffer (final concentration: 14.7 mM, pH 6.5). The increase in the absorbance at 475 nm (ΔOD475/min) was measured using a VersaMax^TM microplate reader to determine the initial rate of dopachrome generation. The maximal velocity (Vmax) was determined from the y-axis intercept values of the Lineweaver–Burk plots obtained at seven different L-dopa concentrations. Dixon plots were obtained from Lineweaver–Burk plots for inhibitors by plotting the reciprocal of the reaction velocity against the inhibitor concentration."}, "[7]": {"conditions": "5 mM spray (analogs as sodium salts)"}, "[8]": {"conditions": "5 mM spray every 12 h (analogs as sodium salts), 36 h storage, 20 °C"}}, "note": "Read-outs that look alike come from different tables or passages of the source.", "data": [{"compound": "NC(=S)Nc1ccccc1", "note": "[PTU, phenylthiourea, reference compound]", "values": [{"measurement": "water solubility", "setting": "[1]", "value": "poorly soluble in water"}, {"measurement": "L* value change (ΔL*)", "setting": "freshly-cut apple slices; [7]", "value": 3.4}, {"measurement": "inhibition at 5000 µM", "setting": "freshly-cut apple slices", "value": 21.9, "unit": "%"}]}, {"compound": "Cc1c(C)c2c(c(C)c1O)CCC(C)(C(=O)O)O2", "note": "(stereo not drawn) [Trolox, reference compound]", "values": [{"measurement": "ABTS radical cation scavenging activity, inhibition", "setting": "[2]", "value": 96, "unit": "%"}, {"measurement": "in vitro ROS scavenging effect", "setting": "[3]", "value": "greatly reduced"}]}, {"compound": "O=C1O[C@H]([C@@H](O)CO)C(O)=C1O", "note": "[Vitamin C, L-ascorbic acid]", "values": [{"measurement": "DPPH radical scavenging activity, inhibition", "setting": "[4]", "value": 98, "unit": "%"}]}, {"compound": "Sc1nc2ccccc2[nH]1", "note": "[analog 1, 1H-Benzo[d]imidazole-2-thiol]", "values": [{"measurement": "inhibition at 5000 µM", "setting": "freshly-cut apple slices", "value": "28.5 to 36.1", "unit": "%"}]}, {"compound": "Cc1cc2nc(S)[nH]c2cc1C", "note": "[analog 3, 5,6-Dimethyl-1H-benzo[d]imidazole-2-thiol]", "values": [{"measurement": "cytotoxicity in HEK-293 cells", "setting": "HEK-293 cells", "value": "weakly"}]}, {"compound": "Sc1nc2cc(Cl)ccc2[nH]1", "note": "[analog 4, 5-Chloro-1H-benzo[d]imidazole-2-thiol]", "values": [{"measurement": "in vitro ROS scavenging effect", "setting": "[3]", "value": "most potently reduced"}]}, {"compound": "COc1ccc2[nH]c(S)nc2c1", "note": "[analog 5, 5-Methoxy-1H-benzo[d]imidazole-2-thiol]", "values": [{"measurement": "L* value change (ΔL*)", "setting": "freshly-cut apple slices; [7]", "value": 8.2}]}, {"compound": "O=C(c1ccccc1)c1ccc2[nH]c(S)nc2c1", "note": "[analog 6, (2-Mercapto-1H-benzo[d]imidazol-5-yl)(phenyl)methanone]", "values": [{"measurement": "cytotoxicity in HEK-293 cells", "setting": "HEK-293 cells", "value": "moderately cytotoxic"}, {"measurement": "fold more potent than kojic acid, diphenolase activity", "setting": "mushroom tyrosinase [5]", "value": 970, "unit": "fold"}, {"measurement": "Ki", "setting": "mushroom tyrosinase [6]", "value": 8.6, "unit": "nM"}, {"measurement": "mode of tyrosinase inhibition", "setting": "mushroom tyrosinase [6]", "value": "competitive"}]}, {"compound": "O=[N+]([O-])c1ccc2[nH]c(S)nc2c1", "note": "[analog 7, 5-Nitro-1H-benzo[d]imidazole-2-thiol]", "values": [{"measurement": "L* value change (ΔL*)", "setting": "freshly-cut apple slices; [7]", "value": 1.3}]}, {"compound": "Cc1cccc2[nH]c(S)nc12", "note": "[analog 9, 4-Methyl-1H-benzo[d]imidazole-2-thiol]", "values": [{"measurement": "inhibition at 5000 µM", "setting": "freshly-cut apple slices; [8]", "value": "28.5 to 36.1", "unit": "%"}, {"measurement": "ABTS radical cation scavenging activity, inhibition", "setting": "[2]", "value": 90, "unit": "%"}]}, {"compound": "N#Cc1ccc2[nH]c(S)nc2c1", "note": "[analog 10, 2-Mercapto-1H-benzo[d]imidazole-5-carbonitrile]", "values": [{"measurement": "L* value change (ΔL*)", "setting": "freshly-cut apple slices; [7]", "value": 3.1}, {"measurement": "overall color difference (ΔE) of apple slices", "setting": "freshly-cut apple slices; 5 mM spray (analogs as sodium salts), over 48 h storage", "value": "lowest increase in ΔE"}, {"measurement": "inhibition at 5000 µM", "setting": "freshly-cut apple slices; [8]", "value": "28.5 to 36.1", "unit": "%"}, {"measurement": "Ki", "setting": "mushroom tyrosinase [6]", "value": 14.8, "unit": "nM"}, {"measurement": "mode of tyrosinase inhibition", "setting": "mushroom tyrosinase [6]", "value": "competitive"}]}, {"compound": "O=c1cc(CO)occ1O", "note": "[kojic acid, reference compound]", "values": [{"measurement": "L* value change (ΔL*)", "setting": "freshly-cut apple slices; [7]", "value": 6.4}, {"measurement": "inhibition at 5000 µM", "setting": "freshly-cut apple slices; [8]", "value": 7, "unit": "%"}]}]}
